Assay results from patent US9428552B2, “Stem cell mobilization and tissue repair and regeneration” (Wellstat Therapeutics Corporation, priority 2012, dated 2016).
Entries after “also recorded” stand apart in the source; their conditions may differ. Ends that are not written are not given here. Peptide text beside a SMILES is read from it.

Columns and labels:
EML-Cl cells = test: CFU-GEMM number of EML cells after 3 hr serum and SCF deprivation; type: cell-based, murine; settings: for rescue of CFU-GEMM: serum and SCF deprivation, 10 μM
Method: Erythroid myeloid lymphoid (EML) cells are an established multipotent hematopoietic precursor cell line (EML-Cl) that can be maintained in medium including stem cell factor (SCF) and Horse serum (HS). When plated in methylcellulose with cocktail of growth factors EML cells form mixed colonies (CFUmix or CFU-GEMM) containing a mix of erythroid and myeloid cells that can be enumerated after 7 days of incubation.
Starvation of EML-Cl cell line cells of serum and SCF during 3 hr causes majority of CFUmix to develop apoptosis and die, which decreases their number growing in methylcellulose substantially.
EML cells were grown in IMDM with 10% HS and 100 ng/ml of SCF in IMDM and used for all experiments in exponential growth phase.
Cells were washed from serum and growth factor with IMDM two times, counted and placed into 12 ml polypropylene tubes 2×10^6 cells in 2 ml for 3 hr incubation at t-37° C. and 5% CO2.
Cell suspensions after the incubation were centrifuged, diluted 5 times with IMDM and counted using a hemacytometer. Cells were adjusted to 10^3 cells/mL in IMDM and cell suspension was placed into 50 mL tubes with 4.5 mL of Methylcellulose M3434 mixed well and seeded into 35-mm Petri dishes (Falcon BD351008) at 1 mL/dish. Cells were incubated at 37° C., 5% CO2.
CFU were scored using an inverted microscope after 7 days of incubation.

human recombinant DPPIV = human recombinant DPPIV (Homo sapiens, UniProt P27487); test: Hydrolysis of N-terminal by recombinant DPPIV; type: in vitro ADME; settings: previously shown
[1] = Cleavage of peptide during 3 hr incubation with murine bone marrow cells (HPLC, MS); type: in vitro ADME; settings: 100 μg/ml, 37° C., absence of serum
Method: B6D2F1 mice (HSD) were treated with 100 mg/kg testosterone propionate 24 hr before being sacrificed, femurs were removed and bone marrow cells (BMC) were flushed from bone marrow cavity. BMC—5×10^6 cells/ml was resuspended in IMDM. Cell suspension was placed into 14-ml Falcon tubes (BD). Peptide Compound A, (Think Peptides) was added to cells at 100 μg/ml concentration. The appropriate volume of IMDM was added to another control supernatant tube containing 1 ml of cells. Cells were incubated for 3 hours at 37° C. After 3 hours of incubation, tubes were centrifuged, supernatants were collected and proteins with Mw>10 KD were eliminated by Amicon filtration at 3000 rpm 25 minutes. 0.5 ml of supernatant containing <10 Kd material was collected from each sample and heat inactivated during 10 min at t-70° C. The following samples were prepared for HPLC and MS: Control supernatant (<10 Kd); Supernatant from cells incubated with Compound A (<10 Kd); Compound A (50 μL) spiked into cell culture medium; and Compound C (50 μL) spiked into cell culture medium.

murine recombinant DPPIV = murine recombinant DPPIV (Mus musculus, UniProt P28843); test: Hydrolysis of N-terminal by recombinant DPPIV; type: in vitro ADME; settings: previously shown
hindlimb ischemia = test: Unilateral hindlimb ischemia by femoral artery ligation; type: in vivo; settings: C57/BL6 mice, day 9; peptide 250 μg/kg s.c., DFO 100 mg/kg i.m.
Excerpt: Ligation of the femoral artery in mice is an established model of hindlimb ischemia for testing treatments that might improve revascularization and functional recovery.
A total of 50 C57/B16 8-10 week old female mice were divided into 5 treatment groups (n=10/group).
• 1. Vehicle Control • 2. DFO (intramuscular) DFO (desferrioxamine) has been reported to improve revascularization by augmenting HIF-1α activation in sites of damage, to elicit secretion of local angiogenic factors and chemotactic signals that attract circulating repair-promoting stem and progenitor cells) • 3. DFO (intramuscular)+Compound C (subcutaneous) • 4. Compound A (subcutaneous) • 5. DFO (intramuscular)+Compound A (subcutaneous)
Mice were subjected to unilateral total ligation and transection of the femoral artery under anesthesia (2% Isoflurane mixed with 100% oxygen). A unilateral incision was made over the left medial thigh of each mouse. […]
On day 0, 4, 9, and 14, the condition of left hind limbs were evaluated with Muscle Function Score and Ischemia Score. […]
Recovery of circulation and function in the hindlimb ischemia model involves angiogenesis and revascularization, a process triggered by oxygen deficits. Revascularization was evaluated on day 14 after artery ligation by counting capillaries in cross sectional histology slides prepared from gastrocnemius muscles from both legs. […]

CFU-GEMM [2] = test: Effect of S1P gradient disruption (DOP) on mobilization after multiple subcutaneous injections; type: in vivo; settings: DBA/2J mice, DOP in glucose drinking water
Method: In this experiment the inhibitor of S1P lyase activity, 4-deoxypyridoxine (DOP, Sigma-Aldrich) was administrated to mice in the drinking water in order to test if disruption of S1P gradient has an effect on mobilization induced by Compound A. Fifteen week-old DBA/2J male mice (Jackson Laboratories) were divided into 4 groups of 4 mice each. All Mice received glucose drinking water (10 g/L) throughout the duration of the study. DOP ([…]) was added to the glucose water of two groups. Mice were subcutaneously injected for four consecutive days with 500 μg/kg of Compound A or Saline. At one-hour post injections on day 4, peripheral blood from mice was harvested from the orbital plexus using capillary tubes (VWR) and collected into EDTA-containing tubes (BD). To determine mobilization of colony-forming unit cells out of the peripheral blood, mononuclear cells were plated in mouse methylcellulose complete media (R&D Systems). The cells were placed into 35-mm Petri dishes at 100,000 cells per dish with 5 dishes per group. Cells incubated for 11 days in a 37° C. and 5% CO2 humidified incubator. CFU colonies were then scored using an inverted microscope.

[3] = system: hematopoietic stem cells (HSC) and their hematopoietic progenitors (HPC); test: Mobilization of stem cells into peripheral blood after single subcutaneous injection (colony-forming assay); type: in vivo; settings: DBA/2J mice, single 125 μg/kg dose, within one hour of administration
Method: Stimulatory doses of Compound A activate quiescent stem cells, induce them to proliferate and egress from bone marrow into peripheral blood. […]
After 1 hour, mice were anesthetized and blood was collected through the orbital sinus with heparinized capillary tubes. To enumerate HSC and HPC in peripheral blood, cells were washed, counted and plated in semi-solid Methylcellulose (Stem cell technology) at 100,000 per dish (5 dishes/group) and placed in CO2 incubator at 37° C. Colony-forming unit-granulocyte erythroid macrophage megakaryocyte (CFU-GEMM) and Colony-forming unit-granulocyte macrophage (CFU-GM) were detected under inverted microscope after 7-10 days in culture.

Caspase-3 = Caspase-3 fluorimetric assay in EML cell lysates after HS and SCF deprivation; type: cell-based, murine; settings: for Caspase-3 proteolytic activity, Exp 1 / Caspase-3 proteolytic activity, Exp 2 / Caspase-3 proteolytic activity, Exp 3 / Caspase-3 proteolytic activity, Sum of 3 experiments: 10 μM present during starvation, starvation control 100%; for Caspase-3 activation induced by HS and SCF deprivation: EML cells, peptide present during starvation
Method: To assess possible effect of Compound A and other peptides on Caspase-3 enzymatic activity during apoptosis induced by serum starvation fluorimetric assay Caspase-3 assay was performed according to the manufacturer's instructions (ApoAlert Clontech Mountain view CA).
Cell suspensions after the incubation were divided into two equal tubes (+/−Caspase inhibitor). Cells were centrifuged at 400×g for 5 min and re-suspend in chilled Cell Lysis Buffer with the following incubation on ice for 10 min., cell lysates were centrifugated in a microcentrifuge at max speed for 10 min at 4° C. and transferred into new tubes.
50 μl of 2× Reaction buffer/DTT mix and 1 μl of Caspase inhibitor added to 50 μl of cell lysate (+Inhibitor groups). 1 uL DMSO per 50 μL of 2× Reaction buffer was added to samples without inhibitor.
5 μL of the 1 mM Caspase-3 Substrate (DEVD-AFC; 50 μM final concentration) were added to each tube and incubated at t-37° C. for 1 hr in a water bath. All samples in duplicates were transferred to a 96 well plate. The plates were analyzed on a fluorescence plate reader (Spectramax Gemini.) at a 400 nm excitation and a 505 nm emission, and Caspase-3 activity was expressed relative to the medium control. Free AFC accumulation that resulted from cleavage of the asparatic-AFC bond monitored by fluorimeter and results in duplicates were recalculated according to the free AFC calibration curve.

CFU-GEMM [4] = test: Mobilization of CFU-GEMM and CFU-GM in db/db mice with high glucose level; type: in vivo; settings: 5 mg/kg s.c.
Method: To test mobilizing effect of Compound A in db/db mice with high level of glucose the following experiment was conducted. BKS.Cg-Dock7m+/+Leprdb/J male mice (10 weeks old Jackson Laboratories, stock #000642) were subcutaneously injected with 0.9% saline (vehicle control), 5 mg/kg Compound C, or 10 mg/kg Compound A (ThinkPeptides) for 5 consecutive days. At 7 days post initial injection, peripheral blood from 3 mice per group was harvested from the orbital plexus using capillary tubes (VWR) and collected into EDTA-containing tubes (BD).

CFU-GEMM and CFU-GM = test: Mobilization of stem cells into peripheral blood after multiple subcutaneous injections; type: in vivo, mice; settings: dose response
Excerpt: This example is based on a protocol for a 5-day course of once-daily Compound A injections into DBA male mice similar to a G-CSF. […]
[…] At 7 days post initial injection, peripheral blood from 3 mice per group was harvested from the orbital plexus using capillary tubes (VWR) and collected into EDTA-containing tubes (VWR). Blood was also harvested and pooled from 3 naïve mice to serve as a naïve control group.

THP-1 cells = test: Cytokine production by THP-1 cells in response to LPS; type: cell-based; settings: 4 hours, levels ranging from 1 μM down to 10 nM
Method: THP-1 cells activated with 0.2 μM vitamin-D3 (EMD Biosciences Inc) and cultured in cRPMI [RPMI plus 10% ΔFBS (both Lonza)] were transferred to 24-well dishes. Different concentrations of Compound A or related peptides were added (in triplicate) and the plate placed in a 37° C. incubator.
After 1 hour, crude-LPS from E. coli 0111:B4 (20 ng-100 ng/ml final conc) was added to some wells. Supernatant aliquots were taken after 4 hours and cytokine levels determined using a cytokine bead array kit (BD558277).

Sequence of human recombinant DPPIV (P27487 whole entry): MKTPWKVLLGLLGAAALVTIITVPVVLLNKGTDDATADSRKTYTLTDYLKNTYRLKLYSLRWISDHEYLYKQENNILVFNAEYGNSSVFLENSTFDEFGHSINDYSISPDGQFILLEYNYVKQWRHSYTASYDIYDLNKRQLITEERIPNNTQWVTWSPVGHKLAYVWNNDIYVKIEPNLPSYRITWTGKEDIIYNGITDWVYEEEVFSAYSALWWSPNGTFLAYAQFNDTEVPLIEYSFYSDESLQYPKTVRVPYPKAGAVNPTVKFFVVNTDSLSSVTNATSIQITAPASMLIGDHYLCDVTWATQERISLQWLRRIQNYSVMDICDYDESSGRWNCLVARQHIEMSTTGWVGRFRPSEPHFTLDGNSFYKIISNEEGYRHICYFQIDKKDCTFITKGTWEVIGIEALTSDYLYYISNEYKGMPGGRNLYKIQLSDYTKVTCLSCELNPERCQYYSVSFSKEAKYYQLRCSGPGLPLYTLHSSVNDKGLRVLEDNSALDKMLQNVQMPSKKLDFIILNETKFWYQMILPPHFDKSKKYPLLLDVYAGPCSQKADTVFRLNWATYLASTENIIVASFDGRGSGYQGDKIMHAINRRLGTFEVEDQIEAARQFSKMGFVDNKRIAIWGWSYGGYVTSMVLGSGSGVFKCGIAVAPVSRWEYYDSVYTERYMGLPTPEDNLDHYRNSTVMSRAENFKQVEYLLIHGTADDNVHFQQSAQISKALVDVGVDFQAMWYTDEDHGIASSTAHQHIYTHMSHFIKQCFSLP
Sequence of murine recombinant DPPIV (P28843 whole entry): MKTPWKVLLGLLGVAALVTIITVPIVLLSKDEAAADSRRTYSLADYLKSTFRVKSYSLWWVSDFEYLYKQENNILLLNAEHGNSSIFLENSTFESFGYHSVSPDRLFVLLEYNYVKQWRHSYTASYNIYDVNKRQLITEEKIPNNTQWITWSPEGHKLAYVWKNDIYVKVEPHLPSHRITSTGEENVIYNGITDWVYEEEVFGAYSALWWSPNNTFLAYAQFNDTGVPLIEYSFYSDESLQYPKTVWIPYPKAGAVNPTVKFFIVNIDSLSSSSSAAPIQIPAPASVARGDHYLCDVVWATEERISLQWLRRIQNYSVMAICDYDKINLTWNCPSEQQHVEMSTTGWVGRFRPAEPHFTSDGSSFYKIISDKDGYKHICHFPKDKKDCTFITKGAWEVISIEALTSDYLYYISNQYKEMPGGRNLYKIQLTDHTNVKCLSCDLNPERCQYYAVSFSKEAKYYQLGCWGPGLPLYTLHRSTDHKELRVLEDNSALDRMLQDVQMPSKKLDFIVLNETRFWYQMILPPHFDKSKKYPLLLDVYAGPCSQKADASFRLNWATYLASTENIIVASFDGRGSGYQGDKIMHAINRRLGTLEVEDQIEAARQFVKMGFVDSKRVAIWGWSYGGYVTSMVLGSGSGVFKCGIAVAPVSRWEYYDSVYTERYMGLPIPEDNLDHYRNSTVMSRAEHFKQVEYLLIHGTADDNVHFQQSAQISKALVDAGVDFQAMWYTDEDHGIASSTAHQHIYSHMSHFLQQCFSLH

For CCCCCCCCCCCC1N[C@H](C(=O)O)CS1 (stereo partly drawn) [CAY10444], the “rescue of CFU-GEMM” value (EML-Cl cells) was “rescued CFU-GEMM”.

For CC(C)C[C@H](NC(=O)[C@H](CC(=O)O)NC(=O)[C@H](Cc1ccccc1)NC(=O)[C@H](Cc1c[nH]cn1)NC(=O)[C@@H]1CCCN1C(=O)[C@@H](N)Cc1ccccc1)C(=O)N[C@@H](CO)C(=O)N[C@@H](Cc1c[nH]cn1)C(=O)NCC(=O)N[C@@H](CO)C(=O)N[C@@H](C)C(=O)N[C@@H](CCC(N)=O)C(=O)N[C@H](C(=O)N[C@@H](CO)C(=O)N[C@@H](CC(=O)O)C(=O)N[C@@H](CCCCN)C(=O)N1CCC[C@H]1C(=O)O)C(C)C [Compound A, Phe-Pro-His-Phe-Asp-Leu-Ser-His-Gly-Ser-Ala-Gln-Val-Ser-Asp-Lys-Pro] (H-FPHFDLSHGSAQVSDKP-OH; N-terminus and C-terminus assumed), the “hydrolysis of N-terminal by human recombinant DPPIV” value (human recombinant DPPIV) was “can be hydrolyzed”, the “cleavage after incubation with murine bone marrow cells” value [1] was “proteolyses of the peptide was registered” and the “hydrolysis of N-terminal by murine recombinant DPPIV” value (murine recombinant DPPIV) was “can be hydrolyzed”.

For CCCCCCCCCCCCC/C=C/[C@@H](O)[C@@H](N)COP(=O)(O)O [Compound S1P, Sphingosine 1-phosphate], the “rescue of CFU-GEMM” value (EML-Cl cells) was “rescued CFU-GEMM”.

In the case of CC(=O)N(O)CCCCCNC(=O)CCC(=O)N(O)CCCCCNC(=O)CCC(=O)N(O)CCCCCN [DFO, desferrioxamine], the “Muscle Function Score” value (hindlimb ischemia) is reported as “maintained impairment”.

In the case of Cc1ncc(CO)c(C)c1O [DOP, 4-deoxypyridoxine], the “mobilization of colony forming cells into peripheral blood” value (CFU-GEMM [2]) is reported as “decreased mobilization”.

In the case of FC(F)(F)c1cccc(-c2noc(-c3cc(-c4ccccc4)c(C(F)(F)F)s3)n2)c1 [SEW2871], the “rescue of CFU-GEMM” value (EML-Cl cells) is reported as “rescued CFU-GEMM”.

In the case of “FPHFDLSHGSAQV [Compound C, included for comparison with the oligopeptides of this invention]”, the “increase in CFU-GEMM numbers” value [3] is reported as “two-fold”, the “Caspase-3 proteolytic activity, Exp 1” value (Caspase-3) is reported as 66% and the “Caspase-3 proteolytic activity, Exp 2” value (Caspase-3) is reported as 83%. For the same compound, the “Caspase-3 proteolytic activity, Exp 3” value (Caspase-3) was 53%, the “Caspase-3 proteolytic activity, Sum of 3 experiments” value (Caspase-3) was 67.3 +/− 15% and the “Caspase-3 activation induced by HS and SCF deprivation” value (Caspase-3) was “prevented Caspase-3 activation”. For the same compound, the “rescue of colony-forming cells (CFUmix/CFU-GEMM) during starvation” value (EML-Cl cells; 3 hr HS and SCF deprivation, compared with combined HS and SCF) was “rescued colony-forming cells”, the “CFU-GEMM / progenitor cell mobilization into peripheral blood” value (CFU-GEMM [4]) was “did not cause CFU-GEMM mobilization; also recorded: did not mobilize progenitor cells” and the “dose with the best effect on CFU-GEMM mobilization” value (CFU-GEMM and CFU-GM) was 750 µg/kg.

For JTE-013, the “rescue of CFU-GEMM” value (EML-Cl cells) was “rescued CFU-GEMM”.

In the case of “N-acetyl-Ser-Asp-Lys-Pro (Ac-SDKP) [AcSDKP]”, the “Caspase-3 proteolytic activity, Exp 1” value (Caspase-3) is reported as 70%, the “Caspase-3 proteolytic activity, Exp 2” value (Caspase-3) is reported as 84% and the “Caspase-3 proteolytic activity, Exp 3” value (Caspase-3) is reported as 65%. The “Caspase-3 proteolytic activity, Sum of 3 experiments” value (Caspase-3) was 73 +/− 9.8%, the “Caspase-3 activation induced by HS and SCF deprivation” value (Caspase-3) was “prevented Caspase-3 activation” and the TNFα secretion (THP-1 cells) was “strongly inhibited”.
